Laboratory results reported in US20240158446A1, “CYCLIC COMPOUND HAVING SELECTIVE INHIBITORY ACTION ON KRAS OVER HRAS AND NRAS” (CHUGAI SEIYAKU KABUSHIKI KAISHA, priority 2021, published 2024).
Like-named read-outs stand apart in the source and are kept apart here. Where a SMILES comes first, the peptide text is derived from it. Bridges are numbered along the chain shown (N, C = ends). [ ]: non-standard residue; d: D form. hPhe(3-Cl-4-CF3) = N[C@@H](CCc1ccc(C(F)(F)F)c(Cl)c1)C(=O)O; NPrPhe(4-CF3) = CCCN[C@@H](Cc1ccc(C(F)(F)F)cc1)C(=O)O; NMeGly(cPent) = CN[C@H](C(=O)O)C1CCCC1; Pro(4,4-F2) = O=C(O)[C@@H]1CC(F)(F)CN1; NMeL = CN[C@@H](CC(C)C)C(=O)O; NMeA = CN[C@@H](C)C(=O)O; Ac5c = NC1(C(=O)O)CCCC1; Aze = O=C(O)[C@@H]1CCN1; Sar = CNCC(=O)O

Tests used:
[1] = molecular target: GDP-bound KRAS wild-type protein (Homo sapiens, UniProt P01116); assay: Binding to KRAS by surface plasmon resonance (SPR), Single Cycle Kinetics; details: GDP-bound KRAS wild-type protein, read-out: KRAS KD
GDP-bound KRAS wild-type protein, sequence (P01116 whole entry): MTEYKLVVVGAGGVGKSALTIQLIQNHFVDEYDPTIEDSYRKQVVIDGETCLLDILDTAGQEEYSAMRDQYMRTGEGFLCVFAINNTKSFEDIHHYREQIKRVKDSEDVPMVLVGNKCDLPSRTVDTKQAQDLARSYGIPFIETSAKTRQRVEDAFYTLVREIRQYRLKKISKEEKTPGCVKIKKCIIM

[2] = molecular target: GDP-bound NRAS wild-type protein (Homo sapiens, UniProt P01111); assay: Binding to NRAS by surface plasmon resonance (SPR), Single Cycle Kinetics; details: for NRAS/KRAS (ratio of KD value with respect to GDP-bound NRAS wild-type protein to KD value with respect to KRAS): SPR KD ratio NRAS/KRAS, class symbols
GDP-bound NRAS wild-type protein, sequence (P01111 whole entry): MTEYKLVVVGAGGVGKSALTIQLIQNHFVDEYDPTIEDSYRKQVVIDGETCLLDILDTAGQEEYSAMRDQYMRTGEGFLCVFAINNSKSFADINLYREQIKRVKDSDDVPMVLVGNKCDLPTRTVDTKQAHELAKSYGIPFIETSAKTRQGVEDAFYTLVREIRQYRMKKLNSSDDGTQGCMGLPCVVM

[3] = molecular target: GDP-bound HRAS wild-type protein (Homo sapiens, UniProt P01112); assay: Binding to HRAS by surface plasmon resonance (SPR), Single Cycle Kinetics; details: for HRAS/KRAS (ratio of KD value with respect to GDP-bound HRAS wild-type protein to KD value with respect to KRAS): SPR KD ratio HRAS/KRAS, class symbols
GDP-bound HRAS wild-type protein, sequence (P01112 whole entry): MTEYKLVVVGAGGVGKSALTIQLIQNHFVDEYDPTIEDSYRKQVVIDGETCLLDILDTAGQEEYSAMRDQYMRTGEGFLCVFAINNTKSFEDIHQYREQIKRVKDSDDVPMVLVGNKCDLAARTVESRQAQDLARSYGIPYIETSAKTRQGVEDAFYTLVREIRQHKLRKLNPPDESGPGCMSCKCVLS

[4] = SPR, GDP-bound NRAS wild-type protein vs GDP-bound KRAS wild-type protein
[5] = SPR, GDP-bound HRAS wild-type protein vs GDP-bound KRAS wild-type protein
[6] = SPR Single Cycle Kinetics, 1:1 binding model

SMILES	Kd ([1]; SPR, Single Cycle Kinetics) [nM]	NRAS/KRAS (ratio of KD value for NRAS to KD value for KRAS) [2, 4]	HRAS/KRAS (ratio of KD value for HRAS to KD value for KRAS) [3, 5]	further results
CCO[C@@H]1C[C@H]2C(=O)NC3(CC(C)(C)C3)C(=O)N(C)[C@@H](C3CCCC3)C(=O)N(C)[C@H](C(=O)N3CCOCC3)CC(=O)N(C)[C@@H](COC)C(=O)N[C@@H]([C@@H](C)CC)C(=O)N(C)CC(=O)N(C)[C@H]3CCCCCN(C3=O)[C@@H](Cc3ccc(C(F)(F)F)cc3)C(=O)N(C)CC(=O)N[C@@H](CCc3cc(F)c(C(F)(F)F)c(F)c3)C(=O)N2C1 [PP0844]	1.2	B (a compound having 3 or more and less than 10 is denoted as B)	B (a compound having 3 or more and less than 10 is denoted as B)	
CCO[C@@H]1C[C@H]2C(=O)NC3(CCC3)C(=O)N(C)[C@@H](C3CCCC3)C(=O)N(C)[C@H](C(=O)N(C)C)CC(=O)N(C)[C@@H](CC)C(=O)N[C@@H]([C@@H](C)CC)C(=O)N(C)CC(=O)N(C)[C@H]3CCCCCN(C3=O)[C@@H](Cc3ccc(C(F)(F)F)cc3)C(=O)N(C)CC(=O)N[C@@H](CCc3cc(Cl)c(C(F)(F)F)c(Cl)c3)C(=O)N2C1 [PP0989]	1.3	B (a compound having 3 or more and less than 10 is denoted as B)	B (a compound having 3 or more and less than 10 is denoted as B)	
CCO[C@@H]1C[C@H]2C(=O)NC3(CC(C)(C)C3)C(=O)N(C)[C@@H](C3CCCC3)C(=O)N(C)[C@H](C(=O)N(C)C)CC(=O)N(C)[C@@H](CC(F)(F)F)C(=O)N[C@@H]([C@@H](C)CC)C(=O)N(C)CC(=O)N(C)[C@H]3C/C=C\CCN(C3=O)[C@@H](Cc3ccc(C(F)(F)F)cc3)C(=O)N(C)CC(=O)N[C@@H](CCc3ccc(C(F)(F)F)c(Cl)c3)C(=O)N2C1 [PP2833]				Kd [1, 6]: 0.052 nM; NRAS/KRAS (ratio of KD value with respect to GDP-bound NRAS wild-type protein to KD value with respect to KRAS) [2]: A (a compound having 10 or more and less than 20 is denoted as A); HRAS/KRAS (ratio of KD value with respect to GDP-bound HRAS wild-type protein to KD value with respect to KRAS) [3]: A (a compound having 10 or more and less than 20 is denoted as A)
CCO[C@@H]1C[C@H]2C(=O)NC3(CCC3)C(=O)N(C)[C@@H](C3CCCC3)C(=O)N[C@H](C(=O)N(C)C)CC(=O)N(C)[C@@H](CC)C(=O)N[C@@H]([C@@H](C)CC)C(=O)N(C)CC(=O)N(C)[C@H]3C/C=C\CCN(C3=O)[C@@H](Cc3ccc(C(F)(F)F)cc3)C(=O)N(C)CC(=O)N[C@@H](CCc3cc(F)c(C(F)(F)F)c(F)c3)C(=O)N2C1 [PP1094]	0.84	A (a compound having 10 or more and less than 20 is denoted as A)	B (a compound having 3 or more and less than 10 is denoted as B)	
CC[C@H](C)[C@@H]1NC(=O)[C@H](CC(C)C)N(C)C(=O)C[C@@H](C(=O)N2CCOCC2)N(C)C(=O)[C@H](C2CCCC2)N(C)C(=O)C2(CCC2)NC(=O)[C@@H]2C[C@@H](OC)CN2C(=O)[C@H](CCc2cc(F)c(C(F)(F)F)c(F)c2)NC(=O)CN(C)C(=O)[C@H](Cc2ccc(C(F)(F)F)cc2)N2CCCC[C@@H](C2=O)N(C)C(=O)CN(C)C1=O [PP1003]	0.076	C (A compound having a KD ratio of 0.1 or more and less than 3 is denoted as C)	B (a compound having 3 or more and less than 10 is denoted as B)	
CCC[C@H]1C(=O)N[C@@H]([C@@H](C)CC)C(=O)N(C)CC(=O)N(C)[C@H]2C/C=C\CCN(C2=O)[C@@H](Cc2ccc(C(F)(F)F)cc2)C(=O)N(C)CC(=O)N[C@@H](CCc2cc(F)c(C(F)(F)F)c(F)c2)C(=O)N2C[C@H](OCC)C[C@H]2C(=O)NC2(CCC2)C(=O)N(C)[C@@H](C2CCCC2)C(=O)N(C)[C@H](C(=O)N(C)CCC)CC(=O)N1C [PP1389, (2S,8S,12R,14S,20S,23S,27S,30S,36S,38Z)-20-cyclopentyl-8-[2-[3,5-difluoro-4-(trifluoromethyl)phenyl]ethyl]-12-ethoxy-N,4,19,22,26,32,35-heptamethyl-30-[(1S)-1-methylpropyl]-3,6,9,15,18,21,25,28,31,34,42-undecaoxo-N,27-dipropyl-2-[[4-(trifluoromethyl)phenyl]methyl]spiro[1,4,7,10,16,19,22,26,29,32,35-undecazatricyclo[34.5.1.0^10,14]dotetracont-38-ene-17,1′-cyclobutane]-23-carboxamide]				Kd ([1]; SPR, Single Cycle Kinetics, 1:1 binding model): 0.066 nM; NRAS/KRAS (ratio of KD value for NRAS to KD value for KRAS) ([2]; SPR, GDP-bound NRAS wild-type protein vs GDP-bound KRAS wild-type protein, KD ratio class): AA (a compound having 20 or more is denoted as AA); HRAS/KRAS (ratio of KD value for HRAS to KD value for KRAS) ([3]; SPR, GDP-bound HRAS wild-type protein vs GDP-bound KRAS wild-type protein, KD ratio class): A (a compound having 10 or more and less than 20 is denoted as A)
CCC[C@H]1C(=O)N[C@@H]([C@@H](C)CC)C(=O)N(C)CC(=O)N(C)[C@H]2C/C=C\CCN(C2=O)[C@@H](Cc2ccc(C(F)(F)F)cc2)C(=O)N(C)CC(=O)N[C@@H](CCc2ccc3sc(C)c(C)c3c2)C(=O)N2C[C@H](OCC)C[C@H]2C(=O)NC2(CC(C)(C)C2)C(=O)N(C)[C@@H](C2CCCC2)C(=O)N(C)[C@H](C(=O)N(C)C)CC(=O)N1C [PP2889]				Kd [1, 6]: 0.29 nM; NRAS/KRAS (ratio of KD value with respect to GDP-bound NRAS wild-type protein to KD value with respect to KRAS) [2]: A (a compound having 10 or more and less than 20 is denoted as A); HRAS/KRAS (ratio of KD value with respect to GDP-bound HRAS wild-type protein to KD value with respect to KRAS) [3]: A (a compound having 10 or more and less than 20 is denoted as A)
CCCN1C(=O)CN(C)C(=O)CN(C)C(=O)[C@H]([C@@H](C)CC)NC(=O)[C@@H]2CCCCCOc3ccc(cc3)C[C@H]1C(=O)N(C)CC(=O)N[C@@H](CCc1cc(F)c(C(F)(F)F)c(F)c1)C(=O)N1C[C@H](OCC)C[C@H]1C(=O)NC1(CCCC1)C(=O)N(C)[C@@H](C1CCCC1)C(=O)N(C)[C@H](C(=O)N(C)C)CC(=O)N2C [PP0895]	0.0072	C (A compound having a KD ratio of 0.1 or more and less than 3 is denoted as C)	C (A compound having a KD ratio of 0.1 or more and less than 3 is denoted as C)	
CCCN1C(=O)[C@@H]2CCN2C(=O)[C@H](C)N(C)C(=O)[C@H]([C@@H](C)CC)NC(=O)[C@H](CC(C)C)N(C)C(=O)C[C@@H](C(=O)N(C)C)NC(=O)[C@H](C2CCCC2)N(C)C(=O)C2(CCCC2)NC(=O)[C@@H]2CC(F)(F)CN2C(=O)[C@H](CCc2ccc(C(F)(F)F)c(Cl)c2)NC(=O)CN(C)C(=O)[C@@H]1Cc1ccc(C(F)(F)F)cc1 [PP0381] ([NMeL]I[NMeA][Aze][NPrPhe(4-CF3)][Sar][hPhe(3-Cl-4-CF3)][Pro(4,4-F2)][Ac5c][NMeGly(cPent)]D-NMe2; lactam N-11)		C (A compound having a KD ratio of 0.1 or more and less than 3 is denoted as C)	B (a compound having 3 or more and less than 10 is denoted as B)	Kd [1, 6]: 0.49 nM
CCO[C@@H]1C[C@H]2C(=O)NC3(CC(C)(C)C3)C(=O)N(C)[C@@H](C(CC)CC)C(=O)N(C)[C@H](C(=O)N(C)C)CC(=O)N(C)[C@@H](C)C(=O)N[C@@H]([C@@H](C)CC)C(=O)N(C)CC(=O)N(C)[C@H]3C/C=C\CCN(C3=O)[C@@H](Cc3ccc(C)cc3)C(=O)N(C)CC(=O)N[C@@H](CCc3cc(F)c(C(F)(F)F)c(F)c3)C(=O)N2C1 [PP2143]	0.31	A (a compound having 10 or more and less than 20 is denoted as A)	A (a compound having 10 or more and less than 20 is denoted as A)	
CCC[C@H]1C(=O)N[C@@H]([C@@H](C)CC)C(=O)N(C)CC(=O)N(C)[C@H]2C/C=C\CCN(C2=O)[C@@H](CC2CCCCC2)C(=O)N(C)CC(=O)N[C@@H](CCc2ccc(C(F)(F)F)c(OC)c2)C(=O)N2C[C@H](OCC)C[C@H]2C(=O)N(C)C2(CCC2)C(=O)N(C)[C@@H](C2CCCC2)C(=O)N(C)[C@H](C(=O)N(C)C)CC(=O)N1C [PP2336]	0.41	A (a compound having 10 or more and less than 20 is denoted as A)	A (a compound having 10 or more and less than 20 is denoted as A)	
CC[C@H](C)[C@@H]1NC(=O)[C@H](CC(C)C)N(C)C(=O)C[C@@H](C(=O)N(C)C)N(C)C(=O)[C@H](C2CCCC2)N(C)C(=O)C2(CCCC2)NC(=O)[C@@H]2CCCN2C(=O)[C@H](CCc2cc(F)c(C(F)(F)F)c(F)c2)NC(=O)CN(C)C(=O)[C@H](Cc2ccc(C(F)(F)F)cc2)N2CCCCC[C@@H](C2=O)N(C)C(=O)CN(C)C1=O [PP0507]				Kd [1, 6]: 0.94 nM; NRAS/KRAS (ratio of KD value with respect to NRAS to KD value with respect to KRAS) [2, 4]: B (a compound having 3 or more and less than 10 is denoted as B); HRAS/KRAS (ratio of KD value with respect to HRAS to KD value with respect to KRAS) [3, 5]: B (a compound having 3 or more and less than 10 is denoted as B)
CCO[C@@H]1C[C@H]2C(=O)NC3(CCC3)C(=O)N(C)[C@@H](C3CCCC3)C(=O)N(C)[C@H](C(=O)N3CCOCC3)CC(=O)N(C)[C@@H](CC)C(=O)N[C@@H]([C@@H](C)CC)C(=O)N(C)CC(=O)N(C)[C@H]3C/C=C\CCN(C3=O)[C@@H](Cc3ccc(C(F)(F)F)cc3)C(=O)N(C)CC(=O)N[C@@H](CCc3cc(F)c(C(F)(F)F)c(F)c3)C(=O)N2C1 [PP1092]	0.15	A (a compound having 10 or more and less than 20 is denoted as A)	A (a compound having 10 or more and less than 20 is denoted as A)	
C=CCN1CC(=O)N(C)[C@H]2C/C=C\CCN(C2=O)[C@@H](Cc2ccc(C)cc2)C(=O)N(C)CC(=O)N[C@@H](CCc2cc(F)c(C(F)(F)F)c(F)c2)C(=O)N2C[C@H](OCC)C[C@H]2C(=O)NC2(CC(C)(C)C2)C(=O)N(C)[C@@H](C2CCCC2)C(=O)N(C)[C@H](C(=O)N(C)C)CC(=O)N(C)[C@@H](CC(C)C)C(=O)N[C@@H]([C@@H](C)CC)C1=O [PP2050]	0.19	A (a compound having 10 or more and less than 20 is denoted as A)	A (a compound having 10 or more and less than 20 is denoted as A)	
